{"source": "patent US20230263817A1", "about": "“HIGH DOSE NICOTINAMIDE ADENINE DINUCLEOTIDE (NAD) PRECURSOR REGIMENS FOR REDUCTION OF INFLAMMATION IN HUMAN PATIENTS WITH PREEXISTING INFLAMMATION” (University of Washington, priority 2021, published 2023)", "key": {"[1]": {"system": "NLRP3 and proinflammatory cytokine gene expressions in HF PBMCs", "test": "RT-qPCR of NLRP3 and cytokine mRNA in Stage D HF PBMCs treated in vitro with NR", "assay_type": "cell-based, human", "conditions": "4-hour 1 mM NR vs vehicle", "protocol": "(§1) PBMC and Monocyte Culture. Freshly isolated PBMCs or Monocytes from healthy or HF subjects were resuspended with RPMI medium plus 10% heat inactivated FBS. PBMCs (10^6 cells/well) were seeded in Seahorse 24-well plates and incubated at 37° C. in CO2 incubator with various proinflammatory triggers (Vehicle, MitoDAMP, LPS) and compounds (NR, MCC 950, MitoTempo, or LMT-28). After 4 hours incubation, the plate was centrifuged at 40 g for 10 minutes at room temperature without application of the brake to help cells attach to the bottom of the plate. The cells were washed twice and then brought up to 500 μL using Seahorse base medium (Agilent Technologies, supplemented with 1 mM pyruvate, 2 mM glutamine, and 10 mM glucose, pH 7.4).\nIL6 ELISA. Isolated PBMCs (4×10^6 cells per sample) from healthy or HF participants were resuspended in RPMI medium containing 10% heat-inactivated FBS and treated with various proinflammatory triggers (Vehicle, MitoDAMP, LPS) and compounds (NR, MCC 950, MitoTempo, or LMT-28) to final PBMC concentrations of 10×10^6 cells per mL. See below for detailed descriptions of the reagents. […]\nRNA Isolation and Quantitative PCR analysis. […] Real-time PCR was performed in the Corbett rotor gene 6000 real-time PCR machine using iQ™ SYBR® Green Supermix (Bio-rad) and expression levels of the indicated genes were calculated using the ΔΔCt method."}, "[2]": {"system": "healthy PBMCs", "test": "Seahorse Mito Stress Test (OCR) of healthy PBMCs after 4-hour in vitro treatment", "assay_type": "cell-based, human", "protocol": "(§2) PBMC and Monocyte isolation. 30-60 ml of fasting blood was collected into EDTA-containing Vacutainers (BD Mfr #364606). Blood then was diluted (1:1) with RPMI medium (Corning; Cat #17-105-CV) and applied to Histopaque gradient medium (Sigma-Aldrich; Cat #10771) using SepMate-50 (STEMCELL Technologies), and centrifuged at 1200 g for 10 minutes. Top layer contained the enriched peripheral blood mononuclear cells (PBMCs) which were collected and followed by centrifugation at 300 g for 10 minutes. The pellet was resuspended with ACK lysis buffer (Gibco; Cat. A1049201) and incubated at room temperature for 5 minutes to remove residual red blood cells. Next, the enriched PBMCs were washed twice with RPMI medium. All PBMC samples were subjected to the baseline Seahorse Mito Stress Test. When available, the remaining cells were used for cytokine mRNA quantitative PCR and in vitro assays. For monocyte isolation, a magnetic bead-based negative-selection monocyte isolation kit (Miltenyi Biotec, 130-096-537) was used per the manufacturer's instructions. Briefly, antibody-conjugated magnetic bead solution was added to isolated PBMCs resuspended in RPMI containing 0.5% BSA and incubated for 20 minutes at 4° C., followed by magnetic column binding and elution. The procedure was repeated once to improve the purity of monocytes. The monocytes were washed once with RPMI prior to subsequent experiments.\nSeahorse Mito Stress Test. Oxygen consumption rate (OCR) of freshly isolated PBMCs was assessed using a Seahorse XFe24 analyzer (Agilent Technologies). Briefly, purified PBMCs were resuspended in Seahorse base medium (Agilent Technologies, supplemented with 1 mM pyruvate, 2 mM glutamine, and 10 mM glucose, pH 7.4), and added 10^6 cells/well at equal volume of 500 μL in a Seahorse 24-well plate. The cells were maintained in a non-CO2 incubator and allowed to settle for 30 minutes at 37° C. Next, the plate was centrifuged at 40 g for 10 minutes at room temperature without application of the brake to help cells attach to the bottom of the plate. Drugs used in the assay: 5 μM oligomycin A (Sigma-Aldrich; Cat. 75351), 3 μM Trifluoromethoxy carbonylcyanide phenylhydrazone (FCCP) (Sigma-Aldrich; Cat. C2920), 1 μM Rotenone (Sigma-Aldrich; Cat. […]), 1 μM Antimycin A (Sigma-Aldrich; Cat. […]), 0.5 mM TMPD (Sigma-Aldrich; Cat. T7394) and 10 mM Ascorbate (Sigma-Aldrich; Cat. 95209).\nas §1"}, "[3]": {"system": "peripheral blood mononuclear cells (PBMCs)", "test": "Randomized trial of NR in HFrEF: PBMC mitochondrial respiration", "assay_type": "in vivo, human", "conditions": "Week 12 vs Week 0, NR group", "protocol": "Peripheral Blood Mononuclear Cell (PBMC) Mitochondrial Function. PBMCs were isolated from freshly-collected whole blood by centrifugation in Sepmate™-50 PBMC isolation tubes (STEMCELL Technologies, Vancouver, BC, Canada; Cat. 85450). Isolated PBMCs were resuspended in Seahorse XF® medium (Agilent, Cat. 102353-100) and then plated (10^6 cells/well) onto Seahorse® (Agilent) 24-well plates. PBMC mitochondrial respiratory function was assessed by measuring the oxygen consumption rate (OCR) at baseline and maximal stimulated conditions as described in Zhou B, et al. (J Clin Invest. 2020, 130:6054-6063 (Experimental Example 1)). Exploratory Endpoints. The following endpoints were considered exploratory, as the Study was underpowered to detect differences."}, "[4]": {"system": "NLRP3 and cytokines mRNA of PBMC of Stage D HF subjects", "test": "PBMC NLRP3 and cytokine mRNA of Stage D HF patients pre- and post-oral NR", "assay_type": "in vivo, human", "conditions": "oral NR 5-9 days, post vs pre", "protocol": "For experiments associated with the oral NR administration (FIGS. 12C-12F), 5 hospitalized Stage D HF patients undergoing advanced heart failure therapy evaluations were put on escalating doses of NR (250 mg twice a day for Day 1, 500 mg twice a day for Day 2, and 1000 mg twice a day from Day 3 on) for 5-9 days. Fasting blood samples were obtained for PBMC isolation at baseline and post-NR administration. Subject 5 was withdrawn due to a change in clinical course deemed to be independent from NR administration.\n(§3) RNA Isolation and Quantitative PCR analysis. Total RNA was isolated from frozen PBMC pellets using Trizol (Invitrogen) per the manufacturer's instructions, and cDNA was synthesized using iScript™ Reverse Transcription Supermix (Bio-rad) per the manufacturer's instructions. Real-time PCR was performed in the Corbett rotor gene 6000 real-time PCR machine using iQ™ SYBR® Green Supermix (Bio-rad) and expression levels of the indicated genes were calculated using the ΔΔCt method."}, "[5]": {"system": "NLRP3 and pro-inflammatory cytokine (IL1β, IL6, IL18, TNFα) mRNA in healthy PBMCs", "test": "RT-qPCR of NLRP3 and pro-inflammatory cytokine mRNA in healthy PBMCs treated in vitro", "assay_type": "cell-based, human", "protocol": "as §1\nIL6 ELISA. Isolated PBMCs (4×10^6 cells per sample) from healthy or HF participants were resuspended in RPMI medium containing 10% heat-inactivated FBS and treated with various proinflammatory triggers (Vehicle, MitoDAMP, LPS) and compounds (NR, MCC 950, MitoTempo, or LMT-28) to final PBMC concentrations of 10×10^6 cells per mL. See below for detailed descriptions of the reagents. The samples were incubated in Eppendorf tubes at 37° C. in a 5% CO2 incubator with caps open for times designated in the brief description of drawings. The cultured PBMC samples were centrifuged at 8,000 RPM at room temperature. The supernatant was used for ELISA per the manufacture protocol using R&D Systems human IL6 kit (Cat #DY206-05). The cell pellets were stored in −80° C.\nas §3"}, "[6]": {"system": "PBMCs of heart failure patients", "test": "Seahorse OCR of HF PBMCs after 4-hour in vitro NR treatment", "assay_type": "cell-based, human", "conditions": "HF PBMC, 4-hour 1 mM NR vs vehicle", "protocol": "as §2, with “Briefly, antibody-conjugated magnetic bead solution was added to isolated PBMCs resuspended in RPMI containing 0.5% BSA and incubated for 20 minutes at 4° C., followed by magnetic column binding and elution. The procedure was repeated once to improve the purity of monocytes. The monocytes were washed once with RPMI prior to subsequent experiments.” left out\nSeahorse Mito Stress Test. Oxygen consumption rate (OCR) of freshly isolated PBMCs was assessed using a Seahorse XFe24 analyzer (Agilent Technologies). […]"}, "[7]": {"conditions": "healthy PBMC, 4-hour 1 mM NR vs vehicle, absence of MitoDAMP"}}}
{"smiles": "NC(=O)c1ccc[n+]([C@@H]2O[C@H](CO)[C@@H](O)[C@H]2O)c1", "note": "[NR, nicotinamide riboside]", "values": [{"measurement": "reductions of NLRP3 and proinflammatory cytokine gene expressions", "setting": "[1]", "result": "minimal"}, {"measurement": "basal OCR", "setting": "[2]; [7]", "result": "increased"}, {"measurement": "maximal OCR", "setting": "[2]; [7]", "result": "increased"}, {"measurement": "MitoDAMP-induced decline of maximal OCR", "setting": "[2]; healthy PBMC, 4-hour MitoDAMP with 1 mM NR", "result": "partially prevented"}, {"measurement": "maximal OCR", "setting": "[2]; healthy PBMCs, 4-hour 10 ng/mL LPS with 1 mM NR", "result": "enhancing"}, {"measurement": "baseline (basal) PBMC mitochondrial respiration rates", "setting": "[3]", "result": "not changed"}, {"measurement": "maximal PBMC respiration", "setting": "[3]; did not reach statistical significance", "result": "marginal increase"}, {"measurement": "reduction of proinflammatory cytokine gene expressions", "setting": "[4]", "result": "up to 30 fold"}, {"measurement": "proinflammatory cytokine gene expressions", "setting": "[5]; 4-hour 10 ng/mL LPS with 1 mM NR relative to LPS alone", "result": "reducing"}, {"measurement": "proinflammatory cytokine gene expressions", "setting": "[5]; 4-hour MitoDAMP with 1 mM NR relative to MitoDAMP only", "result": "reduction"}, {"measurement": "basal OCR", "setting": "[6]", "result": "increased"}, {"measurement": "maximal OCR", "setting": "[6]", "result": "increased"}]}
